Experimental findings from patent publication US12252484B2, “Pyrazolopyridine compounds for the treatment of autoimmune disease” (Hoffmann-La Roche Inc., priority 2018, dated 2025) are described below.

pIC50: −log10 of the molar value.

The test concerns the target T1, human TLR7 (Homo sapiens, UniProt Q9NYK1).
T1 sequence (Q9NYK1 27-1049): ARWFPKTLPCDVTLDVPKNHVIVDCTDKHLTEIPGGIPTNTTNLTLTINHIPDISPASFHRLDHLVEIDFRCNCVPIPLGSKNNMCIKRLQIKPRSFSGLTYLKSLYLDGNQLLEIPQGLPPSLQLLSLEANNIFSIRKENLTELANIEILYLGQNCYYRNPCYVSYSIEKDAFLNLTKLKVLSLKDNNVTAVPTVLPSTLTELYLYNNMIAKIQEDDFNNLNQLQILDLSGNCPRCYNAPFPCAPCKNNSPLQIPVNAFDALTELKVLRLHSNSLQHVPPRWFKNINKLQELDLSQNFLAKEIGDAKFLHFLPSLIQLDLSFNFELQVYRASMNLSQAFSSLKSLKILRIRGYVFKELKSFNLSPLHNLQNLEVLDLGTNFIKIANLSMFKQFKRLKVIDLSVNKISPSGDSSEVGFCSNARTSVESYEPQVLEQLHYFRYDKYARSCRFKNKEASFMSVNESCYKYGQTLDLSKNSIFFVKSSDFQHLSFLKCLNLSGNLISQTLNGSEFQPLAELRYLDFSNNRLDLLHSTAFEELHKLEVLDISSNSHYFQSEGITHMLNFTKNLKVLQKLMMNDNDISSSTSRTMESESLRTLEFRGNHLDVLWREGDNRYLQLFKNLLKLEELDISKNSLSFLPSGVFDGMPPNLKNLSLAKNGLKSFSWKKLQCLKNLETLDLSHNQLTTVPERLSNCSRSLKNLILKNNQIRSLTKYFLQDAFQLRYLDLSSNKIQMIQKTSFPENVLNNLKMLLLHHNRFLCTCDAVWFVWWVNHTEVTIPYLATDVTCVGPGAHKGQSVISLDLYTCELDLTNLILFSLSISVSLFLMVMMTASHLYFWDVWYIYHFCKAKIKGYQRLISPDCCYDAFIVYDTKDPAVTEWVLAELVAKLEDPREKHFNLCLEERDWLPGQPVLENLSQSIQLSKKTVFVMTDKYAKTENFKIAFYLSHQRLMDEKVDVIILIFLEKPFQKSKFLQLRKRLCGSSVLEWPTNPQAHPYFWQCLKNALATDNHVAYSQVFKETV
Briefly: HEK293-Blue-hTLR-7 cells assay (SEAP reporter, R848 stimulation). Format: cell-based. As to conditions: HEK293-Blue-hTLR-7 cells, R848 ligand, 20 hrs incubation; read-out: TLR7 IC50. Here is the method: The following tests were carried out in order to determine the activity of the compounds of formula (I) in HEK293-Blue-hTLR-7/8/9 cells assay.
HEK293-Blue-hTLR-7 Cells Assay:
A stable HEK293-Blue-hTLR-7 cell line was purchased from InvivoGen (Cat. #: hkb-htlr7, San Diego, California, USA). These cells were originally designed for studying the stimulation of human TLR7 by monitoring the activation of NF-κB. A SEAP (secreted embryonic alkaline phosphatase) reporter gene was placed under the control of the IFN-β minimal promoter fused to five NF-κB and AP-1-binding sites. The SEAP was induced by activating NF-κB and AP-1 via stimulating HEK-Blue hTLR7 cells with TLR7 ligands. Therefore the reporter expression was declined by TLR7 antagonist under the stimulation of a ligand, such as R848 (Resiquimod), for incubation of 20 hrs. The cell culture supernatant SEAP reporter activity was determined using QUANTI-Blue™ kit (Cat. #: rep-qb1, Invivogen, San Diego, Ca, USA) at a wavelength of 640 nm, a detection medium that turns purple or blue in the presence of alkaline phosphatase.
HEK293-Blue-hTLR7 cells were incubated at a density of 250,000˜450,000 cells/mL in a volume of 170 μL in a 96-well plate in Dulbecco's Modified Eagle's medium (DMEM) containing 4.5 g/L glucose, 50 U/mL penicillin, […], […], 2 mM L-glutamine, 10% (v/v) heat-inactivated fetal bovine serum with addition of 20 μL test compound in a serial dilution in the presence of final DMSO at 1% and 10 μL of 20 uM R848 in above DMEM, perform incubation under 37° C. in a CO2 incubator for 20 hrs. Then 20 μL of the supernatant from each well was incubated with 180 μL Quanti-blue substrate solution at 37° C. for 2 hrs and the absorbance was read at 620˜655 nm using a spectrophotometer. The signalling pathway that TLR7 activation leads to downstream NF-κB activation has been widely accepted, and therefore similar reporter assay was modified for evaluating TLR7 antagonist.
A word on the pIC50: it is −log10 of the IC50, conventionally taken in molar units. `C[C@@H]1CN(c2ccc(C#N)n3nccc23)C[C@H](C(=O)NCC2CCNC2)O1` (stereo partly drawn) [Example 40, (2R,6R)-4-(7-cyanopyrazolo[1,5-a]pyridin-4-yl)-6-methyl-N-(pyrrolidin-3-ylmethyl)morpholine-2-carboxamide]: the pIC50 was 6.68.

`C[C@@H]1CN(c2ccc(C#N)n3nccc23)C[C@H](C(=O)NC(C)(C)CN)O1` [Example 41, (2R,6R)-N-(2-amino-1,1-dimethyl-ethyl)-4-(7-cyanopyrazolo[1,5-a]pyridin-4-yl)-6-methyl-morpholine-2-carboxamide]: the negative logarithm of the IC50 (pIC50) was 7.34.

Take `C[C@@H]1CN(c2ccc(C#N)n3nccc23)C[C@H](C(=O)Nc2ccc(C(=O)N3CCNCC3)cc2)O1` [Example 42, (2R,6R)-4-(7-cyanopyrazolo[1,5-a]pyridin-4-yl)-6-methyl-N-[4-(piperazine-1-carbonyl)phenyl]morpholine-2-carboxamide]: the pIC50 is 7.92.

Consider `C[C@H]1C[C@@H](N)CN(c2ccc(C#N)n3nccc23)C1` [Example 43, 4-[(3R,5S)-3-amino-5-methyl-1-piperidyl]pyrazolo[1,5-a]pyridine-7-carbonitrile], for which the negative logarithm of the IC50 (pIC50) was 7.47.

For `C[C@H]1C[C@@H](NC(=O)[C@H](C)N)CN(c2ccc(C#N)n3nccc23)C1` [Example 44, (2S)-2-amino-N-[(3R,5S)-1-(7-cyanopyrazolo[1,5-a]pyridin-4-yl)-5-methyl-3-piperidyl]propanamide], the pIC50 was 7.19.

In the case of `C[C@H]1C[C@@H](NCC#N)CN(c2ccc(C#N)n3nccc23)C1` [Example 46, 4-[(3R,5S)-3-(cyanomethylamino)-5-methyl-1-piperidyl]pyrazolo[1,5-a]pyridine-7-carbonitrile], the pIC50 is 6.77.

Take `C[C@@H]1CN(c2ccc(C#N)n3ncc(F)c23)C[C@H](C(=O)NC2CCN(C)CC2)O1` [Example 47, (2R,6R)-4-(7-cyano-3-fluoro-pyrazolo[1,5-a]pyridin-4-yl)-6-methyl-N-(1-methyl-4-piperidyl)morpholine-2-carboxamide]: the negative logarithm of the IC50 (pIC50) is 8.10.
